# Test results from ChEMBL document CHEMBL3120164, “1,2,3,4-Tetrahydrobenzo[h][1,6]naphthyridines as a new family of potent peripheral-to-midgorge-site inhibitors of acetylcholinesterase: synthesis, pharmacological evaluation and mechanistic studies” (Eur J Med Chem, 2014).
# The source made the active and inactive calls. No cut-off for these calls is given here.
# How the values were obtained:
# [1] = target: Acetylcholinesterase (Electrophorus electricus) (UniProt O42275); experiment: (§1) Displacement of propidium from electric eel AChE peripheral anionic site assessed as decrease in fluorescence intensity by spectrofluorometric analysis
# [2] = target: T1, Acetylcholinesterase (Electrophorus electricus, UniProt O42275); experiment: as §1
# [3] = target: Acetylcholinesterase (Electrophorus electricus) (UniProt O42275); experiment: Binding affinity to electric eel AChE peripheral anionic site assessed as concentration required for decreasing initial fluorescence intensity of AChE-propidium complex by spectrofluorometric analysis
# [4] = target: T2, Acetylcholinesterase (Homo sapiens, UniProt P22303); experiment: Inhibition of human recombinant AChE using acetylthiocholine iodide as substrate preincubated for 20 mins followed by substrate addition by Ellman's method
# [5] = target: T1, Acetylcholinesterase
# Description: Inhibition of electric eel AChE using acetylthiocholine iodide as substrate preincubated for 20 mins followed by substrate addition measured after 5 mins by Ellman's method
# [6] = target: Amyloid-beta precursor protein (Homo sapiens) (UniProt P05067); experiment: Inhibition of amyloid beta (1 to 42) aggregation (unknown origin) at 10 uM relative to control
# [7] = target: T3, Cholinesterase (Homo sapiens, UniProt P06276); experiment: Inhibition of human serum BChE using butyrylthiocholine iodide as substrate preincubated for 20 mins followed by substrate addition measured after 5 mins by Ellman's method
# [8] = in vitro; conditions: PAMPA
# Description: Permeability of the compound by BBB-PAMPA
# [9] = target: T3, Cholinesterase; experiment: Inhibition of human serum BChE using butyrylthiocholine iodide as substrate at 30 uM preincubated for 20 mins followed by substrate addition measured after 5 mins by Ellman's method relative to control
# [10] = target: T2, Acetylcholinesterase; experiment: Inhibition of human recombinant AChE using acetylthiocholine iodide as substrate at 25 uM preincubated for 20 mins followed by substrate addition by Ellman's method relative to control
# [11] = target: T2, Acetylcholinesterase; experiment: Mixed-type inhibition of human recombinant AChE using acetylthiocholine iodide as substrate by Cornish-Bowden plot analysis
# [12] = target: T2, Acetylcholinesterase; experiment: Mixed-type inhibition of human recombinant AChE using acetylthiocholine iodide as substrate assessed as enzyme-inhibitor complex by Lineweaver-Burk plot analysis
# [13] = target: T2, Acetylcholinesterase; experiment: Mixed-type inhibition of human recombinant AChE using acetylthiocholine iodide as substrate assessed as enzyme-substrate-inhibitor complex by Lineweaver-Burk plot analysis
# [14] = target: Acetylcholinesterase (Electrophorus electricus) (UniProt O42275); experiment: Displacement of propidium from electric eel AChE peripheral anionic site assessed as decrease in fluorescence intensity at 1/1 propidium to compound ratio by spectrofluorometric analysis relative to control; conditions: concentration not given here
# [15] = target: Acetylcholinesterase (Electrophorus electricus) (UniProt O42275); experiment: Inhibition of electric eel AChE using acetylthiocholine iodide as substrate at 30 uM preincubated for 20 mins followed by substrate addition measured after 5 mins by Ellman's method relative to control
# [16] = target: T2, Acetylcholinesterase; experiment: Ratio of tacrine IC50 to compound IC50 for human recombinant AChE
# [17] = target: T2, Acetylcholinesterase; experiment: Ratio of propidium IC50 to compound IC50 for human recombinant AChE
# Sequence of Acetylcholinesterase (Electrophorus electricus) (O42275 24-633 limits assumed): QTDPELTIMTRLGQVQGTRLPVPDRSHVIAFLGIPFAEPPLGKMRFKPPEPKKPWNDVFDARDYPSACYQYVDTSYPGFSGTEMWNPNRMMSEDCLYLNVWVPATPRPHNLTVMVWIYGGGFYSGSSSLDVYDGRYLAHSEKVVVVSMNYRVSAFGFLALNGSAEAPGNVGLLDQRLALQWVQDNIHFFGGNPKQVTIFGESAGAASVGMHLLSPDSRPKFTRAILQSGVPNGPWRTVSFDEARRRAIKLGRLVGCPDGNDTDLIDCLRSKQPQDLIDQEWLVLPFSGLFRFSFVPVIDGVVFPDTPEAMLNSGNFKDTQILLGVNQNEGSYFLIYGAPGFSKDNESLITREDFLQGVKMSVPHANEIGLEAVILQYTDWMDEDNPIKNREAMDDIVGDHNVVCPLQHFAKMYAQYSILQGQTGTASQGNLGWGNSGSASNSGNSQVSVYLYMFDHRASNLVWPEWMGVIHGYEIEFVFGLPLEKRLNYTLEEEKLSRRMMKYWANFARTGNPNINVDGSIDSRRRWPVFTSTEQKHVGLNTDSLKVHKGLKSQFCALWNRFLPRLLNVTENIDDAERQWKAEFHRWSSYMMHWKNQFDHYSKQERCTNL
# T1 sequence (O42275 whole entry): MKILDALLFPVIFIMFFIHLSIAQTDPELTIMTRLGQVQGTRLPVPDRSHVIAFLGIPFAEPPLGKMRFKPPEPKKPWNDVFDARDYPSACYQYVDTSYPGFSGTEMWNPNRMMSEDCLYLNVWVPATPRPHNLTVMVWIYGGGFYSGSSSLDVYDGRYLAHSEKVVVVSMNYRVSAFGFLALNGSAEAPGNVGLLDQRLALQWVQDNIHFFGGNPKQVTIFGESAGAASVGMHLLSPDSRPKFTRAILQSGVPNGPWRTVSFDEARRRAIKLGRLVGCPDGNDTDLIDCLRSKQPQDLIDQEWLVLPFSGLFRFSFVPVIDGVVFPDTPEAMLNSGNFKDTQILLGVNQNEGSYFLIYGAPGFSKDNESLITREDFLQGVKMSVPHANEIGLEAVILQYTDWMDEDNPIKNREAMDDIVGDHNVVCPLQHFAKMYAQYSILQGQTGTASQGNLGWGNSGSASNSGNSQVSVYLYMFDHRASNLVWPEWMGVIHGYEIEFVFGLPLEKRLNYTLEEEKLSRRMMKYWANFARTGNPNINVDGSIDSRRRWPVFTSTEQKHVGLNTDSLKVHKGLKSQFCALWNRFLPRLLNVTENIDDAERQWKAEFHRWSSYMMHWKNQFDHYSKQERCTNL
# T3 sequence (P06276 whole entry): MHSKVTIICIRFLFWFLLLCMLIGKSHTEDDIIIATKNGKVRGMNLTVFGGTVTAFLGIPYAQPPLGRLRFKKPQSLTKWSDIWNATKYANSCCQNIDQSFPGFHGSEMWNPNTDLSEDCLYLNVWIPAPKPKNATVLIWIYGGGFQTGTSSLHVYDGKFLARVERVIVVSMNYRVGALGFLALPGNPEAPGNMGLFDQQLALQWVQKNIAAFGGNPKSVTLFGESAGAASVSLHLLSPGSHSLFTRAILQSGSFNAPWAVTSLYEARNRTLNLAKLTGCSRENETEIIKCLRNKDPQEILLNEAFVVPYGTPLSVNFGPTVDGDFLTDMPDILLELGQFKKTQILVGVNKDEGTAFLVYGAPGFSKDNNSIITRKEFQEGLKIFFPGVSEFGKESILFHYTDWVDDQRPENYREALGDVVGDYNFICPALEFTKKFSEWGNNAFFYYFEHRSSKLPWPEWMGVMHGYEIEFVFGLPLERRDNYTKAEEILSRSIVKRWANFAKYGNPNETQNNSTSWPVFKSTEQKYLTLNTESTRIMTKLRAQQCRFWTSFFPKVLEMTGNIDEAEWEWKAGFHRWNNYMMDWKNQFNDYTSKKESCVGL
# Sequence of Amyloid-beta precursor protein (Homo sapiens) (P05067 whole entry): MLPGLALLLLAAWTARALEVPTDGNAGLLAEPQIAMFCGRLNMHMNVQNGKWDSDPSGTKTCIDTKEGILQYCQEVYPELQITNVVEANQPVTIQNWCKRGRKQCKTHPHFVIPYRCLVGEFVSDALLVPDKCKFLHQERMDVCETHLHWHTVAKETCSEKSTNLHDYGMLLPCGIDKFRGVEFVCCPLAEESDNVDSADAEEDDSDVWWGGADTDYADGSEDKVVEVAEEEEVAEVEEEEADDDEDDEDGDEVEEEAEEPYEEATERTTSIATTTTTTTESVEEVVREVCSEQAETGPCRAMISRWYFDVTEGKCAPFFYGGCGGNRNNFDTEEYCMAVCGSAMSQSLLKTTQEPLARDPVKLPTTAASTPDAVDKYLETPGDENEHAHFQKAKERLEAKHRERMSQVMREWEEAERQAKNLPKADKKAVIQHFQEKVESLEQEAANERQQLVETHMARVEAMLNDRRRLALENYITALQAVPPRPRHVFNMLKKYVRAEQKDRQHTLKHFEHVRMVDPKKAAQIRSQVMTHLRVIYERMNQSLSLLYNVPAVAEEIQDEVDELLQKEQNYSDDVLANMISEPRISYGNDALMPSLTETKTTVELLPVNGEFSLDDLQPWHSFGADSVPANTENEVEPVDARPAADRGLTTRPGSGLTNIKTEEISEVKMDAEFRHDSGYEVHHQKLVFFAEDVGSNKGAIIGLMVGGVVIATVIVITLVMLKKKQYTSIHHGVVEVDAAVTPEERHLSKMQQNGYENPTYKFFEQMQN
# T2 sequence (P22303 whole entry): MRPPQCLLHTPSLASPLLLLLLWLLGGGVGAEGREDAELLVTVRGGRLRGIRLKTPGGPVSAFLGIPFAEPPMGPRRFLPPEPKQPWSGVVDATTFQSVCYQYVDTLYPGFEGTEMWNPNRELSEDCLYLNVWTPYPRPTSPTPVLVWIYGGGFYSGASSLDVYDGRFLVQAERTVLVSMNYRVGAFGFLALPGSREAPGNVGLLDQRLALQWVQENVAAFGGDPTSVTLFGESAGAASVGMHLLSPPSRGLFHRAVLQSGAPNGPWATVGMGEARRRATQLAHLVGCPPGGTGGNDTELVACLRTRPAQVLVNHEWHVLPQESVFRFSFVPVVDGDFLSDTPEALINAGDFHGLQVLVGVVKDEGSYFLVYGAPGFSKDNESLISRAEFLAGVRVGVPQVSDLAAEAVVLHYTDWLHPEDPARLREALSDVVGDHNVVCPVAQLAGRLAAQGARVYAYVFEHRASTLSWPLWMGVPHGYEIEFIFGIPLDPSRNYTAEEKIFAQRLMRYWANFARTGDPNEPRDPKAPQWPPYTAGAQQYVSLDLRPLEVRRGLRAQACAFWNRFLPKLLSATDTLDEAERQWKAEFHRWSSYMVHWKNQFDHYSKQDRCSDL
Structure (SMILES),IC50 [4],IC50 [5],inhibition [6],Papp [8],inhibition [9],inhibition [10],also measured
CCNCc1ccc2nc(-c3ccc(Cl)cc3)c3c(c2c1)N(Cc1ccccc1)CCC3,942 nM,147 nM,< 16%,–,–,–,inhibition [1]: Dose-dependent effect; Kd [2]: 3200 nM; Activity [3]: 33 µM
CCOC(=O)c1ccc2nc(-c3cccnc3)c3c(c2c1)N(Cc1ccccc1)CCC3,1060 nM,1970 nM,< 16%,–,–,–,–
CCNCc1ccc2nc(-c3cccnc3)c3c(c2c1)NCCC3,15800 nM,2150 nM,< 16%,2.4 ×10⁻⁶ cm/s,–,–,IC50 [7]: 2590 nM
CN1C(C(=O)Nc2ccccn2)=C(O)c2ccccc2S1(=O)=O [PIROXICAM],–,–,–,1.71 ×10⁻⁶ cm/s,–,–,–
CCOC(=O)c1ccc2nc(-c3ccc(C(=O)OC)cc3)c3c(c2c1)N(Cc1ccccc1)C(=O)CC3,> 25000 nM,13600 nM,< 16%,16.8 ×10⁻⁶ cm/s,5.54%,13.8%,–
CCOC(=O)c1ccc2nc(-c3ccc(Cl)cc3)c3c(c2c1)N(Cc1ccccc1)CCC3,> 25000 nM,6330 nM,< 16%,8.1 ×10⁻⁶ cm/s,8.68%,10%,–
CCOC(=O)c1ccc2nc(-c3ccc(Cl)cc3)c3c(c2c1)NCCC3,> 25000 nM,281 nM,< 16%,9.7 ×10⁻⁶ cm/s,20.3%,17.8%,–
CCNC(=O)c1ccc2nc(-c3ccc(Cl)cc3)c3c(c2c1)N(Cc1ccccc1)CCC3,801 nM,5480 nM,< 16%,7.7 ×10⁻⁶ cm/s,25.3%,–,inhibition [11]: Active; Ki [12]: 785 nM; Ki [13]: 2340 nM; inhibition [14]: 5%
CCOC(=O)c1ccc2nc(-c3cccnc3)c3c(c2c1)N(Cc1ccccc1)C(=O)CC3,13000 nM,> 30000 nM,< 16%,12.2 ×10⁻⁶ cm/s,4.42%,–,inhibition [15]: 43.7%
CCNCc1ccc2nc(-c3ccc(Cl)cc3)c3c(c2c1)NCCC3,556 nM,532 nM,< 16%,5.6 ×10⁻⁶ cm/s,–,–,inhibition [1]: Dose-dependent effect; Kd [2]: 2180 nM; Activity [3]: 23 µM; IC50 [7]: 1370 nM
CCNC(=O)c1ccc2nc(-c3ccc(Cl)cc3)c3c(c2c1)NCCC3,65 nM,46 nM,< 16%,22.9 ×10⁻⁶ cm/s,–,–,inhibition [1]: Dose-dependent effect; Kd [2]: 1760 nM; Activity [3]: 13 µM; inhibition [11]: Active; Ratio IC50 [16]: 6; IC50 [7]: 920 nM; Ki [12]: 65 nM; Ratio IC50 [17]: 500; Ki [13]: 73 nM
CCOC(=O)c1ccc2nc(-c3ccc(Cl)cc3)c3c(c2c1)N(Cc1ccccc1)C(=O)CC3,4150 nM,5210 nM,< 16%,13.3 ×10⁻⁶ cm/s,8.41%,–,–
CCOC(=O)c1ccc2nc(-c3cccnc3)c3c(c2c1)NCCC3,22800 nM,148 nM,< 16%,14.6 ×10⁻⁶ cm/s,27.5%,–,–
CCOC(=O)c1ccc2nc(-c3ccc(C(=O)OC)cc3)c3c(c2c1)N(Cc1ccccc1)CCC3,> 25000 nM,6620 nM,< 16%,9.5 ×10⁻⁶ cm/s,6.61%,15.7%,–
CCn1cc(C(=O)O)c(=O)c2cc(F)c(N3CCNC(C)C3)c(F)c21 (stereo not drawn) [LOMEFLOXACIN],–,–,–,0.75 ×10⁻⁶ cm/s,–,–,–
CCOC(=O)c1ccc2nc(-c3ccc(Cl)cc3)c3c(c2c1)N(Cc1ccc(OC)cc1)CCC3,> 25000 nM,> 30000 nM,< 16%,26 ×10⁻⁶ cm/s,12.4%,10.2%,inhibition [15]: 33.7%
